Experiments:
[1] = system: Utrophin A promoter; assay: Luciferase reporter assay (murine H2K cells); assay type: cell-based, mouse; details: H2K/mdx/Utro A reporter cells, final concentration 10 μM, 48 hrs
Method: The cell line used for the screen is an immortalized mdx mouse H2K cell line that has been stably transfected with a plasmid containing 5 kb fragment of the Utrophin A promoter including the first untranslated exon linked to a luciferase reporter gene (see FIG. 26). Under conditions of low temperature and interferon containing media, the cells remain as myoblasts. These are plated into 96 well plates and cultured in the presence of compound for three days. The level of luciferase is then determined by cell lysis and reading of the light output from the expressed luciferase gene utilising a plate luminometer. The H2K/mdx/Utro A reporter cell line was passaged twice a week until ≦30% confluent. The cells were grown at 33° C. in the presence of 10% CO2 To remove the myoblasts for platting, they were incubated with Trypsin/EDTA until the monolayer started to detach. The H2K/mdx/Utro A reporter cell line cells were plated out into 96 well plates (Falcon 353296, white opaque) at a density of approximately 5000 cells/well in 190 μl normal growth medium. The plates were then incubated at 33° C. in the presence of 10% CO2 for 24 hrs. […] The plates were then incubated for a further 48 hrs Cells were then lysed in situ following the manufacture's protocols (Promega Steady-Glo Luciferase Assay System (E2520). Then counted for 10 seconds using a plate luminometer (Victor1420).

[2] = Slurrying experiment (single form) in methanol, thermodynamic stability; assay type: physicochemical; details: for polymorphic form after slurrying (XRPD): slurried in methanol for four days at 25° C.
Method: The stability of the various solid forms of 5-(ethylsulfonyl)-2-(naphthalen-2-yl)benzo[d]oxazole was investigated by stirring samples of each and mixtures thereof in methanol for defined time periods.
Approximately 10 mg of two polymorphic forms was slurried in 0.25 ml of methanol for 4 days at either room temperature or 60° C. The supernatant liquor was then removed and the resulting solid was dried under vacuum for 24 hrs.
Approximately 2 mg of sample was gently compressed on the XRPD zero back ground single obliquely cut silica sample holder. The sample was then loaded into a Philips X-Pert MPD diffractometer and analysed using the following experimental conditions:
Tube anode: Cu Generator tension: 40 kV Tube current: 40 mA Wavelength alpha1: 1.5406 A Wavelength alpha2: 1.5444 A Start angle [2θ]: 5 End angle [2θ]: 35 Time per step: 2.5 seconds Scan step size: 0.06

polymorphic form after slurrying (XRPD) [2]	polymorphic form after slurrying (XRPD) ([2]; listed as Polymorphic form 1)	stability compared with previously known forms ([2]; stirring in methanol)	Compound	Biological activity in luciferase reporter assay relative to control [1]	polymorphic form after slurrying (XRPD) ([2]; listed as Polymorphic form 2)
–	–	–	CCS(=O)(=O)c1ccc2oc(-c3ccc4ccccc4c3)nc2c1 [5-(ethylsulfonyl)-2-(naphthalen-2-yl)benzo[d]oxazole]	+++ (Between 301% and 400% relative to control)	–
retains its structure	no change in the polymorphic form	increased stability	CCS(=O)(=O)c1ccc2oc(-c3ccc4ccccc4c3)nc2c1 [polymorphic form 1, 5-(ethylsulfonyl)-2-(naphthalen-2-yl)benzo[d]oxazole]	–	–
converted into polymorphic form 1	–	–	CCS(=O)(=O)c1ccc2oc(-c3ccc4ccccc4c3)nc2c1 [polymorphic form 2, 5-(ethylsulfonyl)-2-(naphthalen-2-yl)benzo[d]oxazole]	–	polymorphic form 1 has converted to polymorphic form 2

Source: patent publication US20090048314A1, “TREATMENT OF DUCHENNE MUSCULAR DYSTROPHY” (priority 2007, published 2009)
